Reference: patent EP0545103A1, “Insecticidal, acaricidal and molluscicidal 1-(substituted) thioalkylpyrroles” (priority 1991, dated 1993)

Experiments:
Assay type in all cases: in vivo
Set-up in all cases: key: 0: no effect; 10-25% kill; 26-35% kill; 36-45% kill; 46-55% kill; 56-65% kill; 66-75% kill; 76-85% kill; 86-99% kill; 9: 100% kill
[1] = test system: Tetranychus urticae (OP-resistant strain), 2-spotted spider mite; test: 2-spotted spider mite test, dipped infested limabean plants
In short: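 Mite-infested Sieva limabean plants (OP-resistant strain, ~100 mites per leaf, transferred ~2 h earlier) dipped 3 s with agitation in compound solution (10,000 ppm stock in 35% acetone/water, diluted with water). Mortality counted at 2 days; egg and nymph mortality assessed at 5 days; rated on a scale.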

[2] = test system: Heliothis virescens, 3rd instar tobacco budworm; test: Tobacco budworm 3rd instar test, dipped cotton cotyledons; conditions: mortality rating after 3 days
In short: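 Cotton cotyledons dipped in compound solution (10,000 ppm stock in 35% aqueous acetone, water dilutions), dried and quartered. One caterpillar per section, ten sections per treatment. After 3 days, mortality and feeding-damage reduction scored on a rating scale.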

[3] = test system: Spodoptera eridania, 3rd instar larvae, southern armyworm; test: Southern armyworm 3rd instar test, dipped limabean leaf; conditions: for ARMYWORM Day 3: rating at 3 days; for ARMYWORM Day 5: rating at 5 days
In short: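 Compound dissolved in 35% acetone/water at 10,000 ppm stock, diluted with water. Sieva limabean leaves dipped 3 s, dried, and exposed to ten 3rd instar larvae on damp filter paper. Mortality, reduced feeding and molting interference scored at 3 and 5 days on a rating scale.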

[4] = test system: Aphis fabae, mixed instar, bean aphid; test: Bean aphid spray test on nasturtium; conditions: 100 ppm
In short: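 Compound dissolved at 10,000 ppm in 35% acetone/water, then water-diluted. Nasturtium plants (~5 cm) infested with 100-200 aphids one day before spraying to full coverage on a turntable; mortality estimated after 2 days on a rating scale.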

[5] = 10 ppm, adult mites, rating scale 0-9
[6] = 10 ppm, mite nymphs, rating scale 0-9
[7] = 300 ppm, mite eggs, rating scale 0-9
[8] = 300 ppm, mite nymphs, rating scale 0-9
[9] = 300 ppm, adult mites, rating scale 0-9
[10] = 10 ppm, mortality rating after 2 days
[11] = 100 ppm, mortality rating after 2 days
[12] = 300 ppm, mortality rating after 2 days
[13] = spray, mortality rating after 2 days
[14] = 10 ppm, mite eggs, rating scale 0-9
[15] = 100 ppm, mite eggs, rating scale 0-9
[16] = 100 ppm, adult mites, rating scale 0-9

| Structure (SMILES) | OP-RESISTANT MITES Egg [1, 7] | OP-RESISTANT MITES Nymph [1, 8] | TOBACCO BUDWORM 3rd Instar ([2]; 10 ppm) | TOBACCO BUDWORM 3rd Instar ([2]; 100 ppm) | TOBACCO BUDWORM 3rd Instar ([2]; 1000 ppm) | ARMYWORM Day 3 ([3]; 10 ppm) | ARMYWORM Day 5 ([3]; 10 ppm) | ARMYWORM Day 3 ([3]; 100 ppm) | ARMYWORM Day 5 ([3]; 100 ppm) | ARMYWORM Day 3 ([3]; 1000 ppm) | ARMYWORM Day 5 ([3]; 1000 ppm) | APHIDS ([4]; rating scale 0-9) | OP-RESISTANT MITES Adult [1, 9] | further results |
| --- | --- | --- | --- | --- | --- | --- | --- | --- | --- | --- | --- | --- | --- | --- |
| CCOC(=S)SCn1c(Cl)c(C#N)c(Cl)c1-c1ccc(Cl)c(Cl)c1 [Example 37] | 0 | 0 | 0 | 9 (100% kill) | 9 (100% kill) | 9 (100% kill) | 9 (100% kill) | 9 (100% kill) | 9 (100% kill) | 9 (100% kill) | 9 (100% kill) | 0 |  | OP-RESISTANT MITES Adult [1, 5]: 0; OP-RESISTANT MITES Nymph [1, 6]: 4 (46-55% kill) |
| CN=C(NC)SCn1c(Cl)c(Cl)c(C#N)c1-c1ccc(Cl)c(Cl)c1 [Example 15] | 0 | 0 | 0 |  |  | 9 (100% kill) | 9 (100% kill) | 9 (100% kill) | 9 (100% kill) | 9 (100% kill) | 9 (100% kill) | 0 | 0 |  |
| CN(C)C(=S)SCn1c(-c2ccc(Cl)cc2)c(C#N)c(Cl)c1C(F)(F)F [Example 21] |  |  | 9 (100% kill) | 9 (100% kill) | 9 (100% kill) | 9 (100% kill) | 9 (100% kill) | 9 (100% kill) | 9 (100% kill) | 9 (100% kill) | 9 (100% kill) |  |  | OP-RESISTANT MITES Adult [1, 10]: 9 (100% kill); OP-RESISTANT MITES Egg ([1]; 10 ppm, rating after 5 days): 0; OP-RESISTANT MITES Nymph ([1]; 10 ppm, rating after 5 days): 0; OP-RESISTANT MITES Adult [1, 11]: 9 (100% kill); OP-RESISTANT MITES Egg ([1]; 100 ppm, rating after 5 days): 8 (86-99% kill); OP-RESISTANT MITES Nymph ([1]; 100 ppm, rating after 5 days): 0; OP-RESISTANT MITES Adult [1, 12]: 9 (100% kill); OP-RESISTANT MITES Egg ([1]; 300 ppm, rating after 5 days): 0; OP-RESISTANT MITES Nymph ([1]; 300 ppm, rating after 5 days): 9 (100% kill); APHIDS [4, 13]: 0 |
| CC1(C)CN=C(SCn2c(-c3ccc(Cl)cc3)c(C#N)c(Br)c2C(F)(F)F)NC1 [Example 10] | 0 | 0 | 0 |  |  | 0 | 0 | 9 (100% kill) | 9 (100% kill) | 9 (100% kill) | 9 (100% kill) | 0 | 0 |  |
| CN=C(NC)SCn1c(Br)c(Br)c(C#N)c1Br [Example 14] | 0 | 0 |  | 0 | 8 (86-99% kill) | 0 | 0 | 9 (100% kill) | 9 (100% kill) | 9 (100% kill) | 9 (100% kill) | 0 | 0 |  |
| CN(C)C(=S)SCn1c(-c2ccc(Cl)cc2)c(C#N)c(Br)c1C(F)(F)F [Example 24] |  |  | 0 | 9 (100% kill) | 9 (100% kill) | 9 (100% kill) | 9 (100% kill) | 9 (100% kill) | 9 (100% kill) | 9 (100% kill) | 9 (100% kill) |  |  | OP-RESISTANT MITES Adult [1, 10]: 9 (100% kill); OP-RESISTANT MITES Egg ([1]; 10 ppm, rating after 5 days): 0; OP-RESISTANT MITES Nymph ([1]; 10 ppm, rating after 5 days): 0; OP-RESISTANT MITES Adult [1, 11]: 9 (100% kill); OP-RESISTANT MITES Egg ([1]; 100 ppm, rating after 5 days): 9 (100% kill); OP-RESISTANT MITES Adult [1, 12]: 0; OP-RESISTANT MITES Egg ([1]; 300 ppm, rating after 5 days): 9 (100% kill); APHIDS [4, 13]: 7 (76-85% kill) |
| CCOC(=S)SCn1c(Cl)c(Cl)c(C#N)c1-c1ccc(Cl)c(Cl)c1 [Example 28] | 0 | 0 | 0 |  |  |  |  |  |  |  |  | 0 |  | OP-RESISTANT MITES Egg [1, 14]: 0; OP-RESISTANT MITES Nymph [1, 6]: 3 (36-45% kill); OP-RESISTANT MITES Egg [1, 15]: 9 (100% kill) |
| CN=C(NC)SCn1c(Cl)c(C#N)c(Cl)c1-c1ccc(Cl)c(Cl)c1 [Example 19] | 0 | 0 | 0 | 9 (100% kill) | 9 (100% kill) | 0 | 0 | 9 (100% kill) | 9 (100% kill) | 9 (100% kill) | 9 (100% kill) | 0 | 5 (56-65% kill) |  |
| N#Cc1c(Br)c(Br)n(CSC2=NCCCN2)c1Br [Example 13] | 0 | 0 |  |  | 0 |  |  | 0 |  | 9 (100% kill) |  | 0 | 5 (56-65% kill) |  |
| CN(C)C(=S)SCn1c(Cl)c(C#N)c(Cl)c1-c1ccc(Cl)c(Cl)c1 [Example 36] | 0 | 0 | 0 | 9 (100% kill) | 9 (100% kill) |  |  |  |  |  |  | 0 | 7 (76-85% kill) | OP-RESISTANT MITES Adult [1, 5]: 0; OP-RESISTANT MITES Egg [1, 14]: 0; OP-RESISTANT MITES Nymph [1, 6]: 0; OP-RESISTANT MITES Adult [1, 16]: 0; OP-RESISTANT MITES Egg [1, 15]: 0; OP-RESISTANT MITES Nymph ([1]; 100 ppm, mite nymphs, rating scale 0-9): 0 |
| CCOC(=S)SCn1c(-c2ccc(Cl)cc2)c(C#N)c(Br)c1C(F)(F)F [Example 29] | 0 | 0 |  |  |  | 9 (100% kill) | 9 (100% kill) | 9 (100% kill) | 9 (100% kill) | 9 (100% kill) | 9 (100% kill) | 0 | 9 (100% kill) | OP-RESISTANT MITES Adult [1, 5]: 9 (100% kill); OP-RESISTANT MITES Egg [1, 14]: 9 (100% kill); OP-RESISTANT MITES Adult [1, 16]: 9 (100% kill); OP-RESISTANT MITES Egg [1, 15]: 9 (100% kill) |
